Values quoted from earlier work as cited in PubChem BioAssay AID1259409 (Chemical Carcinogenesis Research Information System (CCRIS), 2018).

Test system: rodent chemically induced tumor inhibition, incidence and multiplicity
Test: CCRIS tumor inhibitor studies
Conditions: Carcinogen: N-BUTYL-N-(4-HYDROXYBUTYL)NITROSAMINE, 3817-11-6, Dose [Inhibitor]: 0, Route [Inhibitor]: INTRAVESICULAR, Species: MOUSE, Strain/Sex: C57BL6/FEMALE, Dose [Carcinogen]: 0.05% IN DRINKING WATER FOR 8 WK; for outcome: Target Tissue: Type of Lesion: URINARY BLADDER: SQUAMOUS CELL CARCINOMA

## CCCCCCCCCCCCCCCCCCCCCCCCCC(=O)N[C@@H](CO[C@H]1O[C@H](CO)[C@H](O)[C@H](O)[C@H]1O)[C@H](O)[C@H](O)CCCCCCCCCCCCCC
0.1 UG/KG ONCE/WK FOR 17 WK BY INTRAVESICULAR INSTILLATION UNDER ANESTHESIA, BEGINNING 1 WK AFTER INITIATION PERIOD (
  outcome: 0/13 (0%), 0/13 (0%), not significant
10 UG/KG ONCE/WK FOR 17 WK BY INTRAVESICULAR INSTILLATION UNDER ANESTHESIA, BEGINNING 1 WK AFTER INITIATION PERIOD (S
  outcome: 0/13 (0%), 2/11 (18.2%), not significant
10 UG/KG ONCE/WK FOR 17 WK BY INTRAVESICULAR INSTILLATION UNDER ANESTHESIA, BEGINNING 1 WK AFTER INITIATION PERIOD (S, Target Tissue: Type of Lesion: URINARY BLADDER: TRANSITIONAL CELL CARCINOMA
  tumour outcome (control, treated, inhibition, significance): 1/13 (7.7%), 3/11 (27.3%), -254%, not significant
